Experimental findings from ChEMBL document CHEMBL1201862, “PubChem BioAssay data set” (2004) are described below.

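Values below derive from 48-hour exposures of cells grown in 96-well plates, with endpoints linearly interpolated between the two concentrations bracketing the appropriate inhibition level. GI50 is the concentration that inhibits growth by half.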 Calls of active or inactive are those of the source. Rule as the data show it: active = GI50 up to about 1.1 µM and inactive = higher.

Test systems include HOP-92; SK-MEL-5; SF-295; PC-3; NCI-H460; UO-31; NCI/ADR-RES; MDA-MB-231; RXF 393; SK-OV-3; T47D; UACC-62; HL-60; MDA-MB-435; OVCAR-5; HCC 2998; COLO 205; SF-268; LOX IMVI; A549.
Holding throughout (assay): NCI tumour cell line growth inhibition, 48 h

For the compound `Cn1c(-c2ccccc2)cc2c3ccsc3c3ccsc3c21`, the GI50 with HOP-92 was > 100 µM (inactive); in the test with SK-MEL-5, > 100 µM (inactive); in the test with SF-295, > 100 µM (inactive); in the test with PC-3, > 100 µM (inactive); in the test on NCI-H460 it was 53.1 µM (inactive); with UO-31 it was > 100 µM (inactive). For the same compound, the GI50 with NCI/ADR-RES was > 100 µM (inactive); in the test with MDA-MB-231, > 100 µM (inactive); in the test on RXF 393, > 100 µM (inactive); with SK-OV-3, > 100 µM (inactive); in the test with T47D, 6.03 µM (inactive); in the test with UACC-62 it was > 100 µM (inactive). Further, the GI50 in the test on HL-60, in the test on MDA-MB-435, in the test with OVCAR-5, with HCC 2998, in the test on COLO 205 and in the test on SF-268 was > 100 µM (inactive) throughout. Also, the GI50 in the test with LOX IMVI and in the test with A549 was > 100 µM (inactive) throughout.
As to `Nc1ccc(Cc2ccc(N)c(C(=O)O)c2)cc1C(=O)O`, the GI50 in the test on HOP-92, with SK-MEL-5, with SF-295, in the test on PC-3, with NCI-H460 and in the test on UO-31 was > 100 µM (inactive) throughout. For the same compound, the GI50 in the test on NCI/ADR-RES, in the test with MDA-MB-231, in the test with RXF 393, with SK-OV-3, in the test on T47D and with UACC-62 was > 100 µM (inactive) each time. Besides, the GI50 in the test with HL-60, in the test with MDA-MB-435, in the test on OVCAR-5, in the test with HCC 2998, with COLO 205 and with SF-268 was > 100 µM (inactive) throughout. In addition, the GI50 with LOX IMVI and in the test on A549 was > 100 µM (inactive) in each case.
For `O=P1(NCCCl)OCCCN1CCCl` (stereo not given) [IFOSFAMIDE], the GI50 is 333 µM (inactive) with HOP-92; 398 µM (inactive) in the test on SK-MEL-5; 374 µM (inactive) in the test with SF-295; > 500 µM (inactive) in the test with PC-3; 394 µM (inactive) with NCI-H460; 386 µM (inactive) in the test with UO-31. Besides, the GI50 in the test with NCI/ADR-RES was 410 µM (inactive); in the test with MDA-MB-231 it was > 500 µM (inactive); in the test with RXF 393, 376 µM (inactive); in the test with SK-OV-3, 379 µM (inactive); with T47D it was > 500 µM (inactive); in the test on UACC-62, 363 µM (inactive). Also, the GI50 in the test on HL-60 was 320 µM (inactive); in the test on MDA-MB-435 it was > 500 µM (inactive); in the test with OVCAR-5 it was 407 µM (inactive); in the test with HCC 2998 it was 346 µM (inactive); in the test with COLO 205, 394 µM (inactive); in the test with SF-268, 351 µM (inactive). Further, the values for the GI50 in the test with LOX IMVI and with A549 were 311 µM (inactive) and 401 µM (inactive), respectively.
For the compound `COc1ccc2nc3ccccc3c(NCCCN(C)CCCl)c2c1`, the GI50 in the test on HOP-92 was 0.185 µM (active); in the test on SK-MEL-5 it was 0.365 µM (active); in the test on SF-295 it was 0.371 µM (active); in the test with PC-3, 0.202 µM (active); in the test with NCI-H460, 0.0791 µM (active); in the test with UO-31, 0.592 µM (active). Also, the GI50 in the test on NCI/ADR-RES was 0.313 µM (active); in the test on MDA-MB-231 it was 0.641 µM (active); in the test on RXF 393, 0.284 µM (active); with SK-OV-3, 0.406 µM (active); in the test with T47D, 0.0358 µM (active); with UACC-62, 0.23 µM (active). For the same compound, the GI50 in the test with HL-60 was 0.0614 µM (active); in the test on MDA-MB-435, 0.298 µM (active); in the test on OVCAR-5, 0.497 µM (active); with HCC 2998 it was 0.388 µM (active); in the test with COLO 205, 0.147 µM (active); in the test on SF-268, 0.155 µM (active). The GI50 is 0.138 µM (active) in the test on LOX IMVI and 0.235 µM (active) in the test on A549.
Consider `C=C(C)C(=O)O[C@H]1CC2(CO)O[C@@H]2CC/C(COC(C)=O)=C/C2OC(=O)C(=C)[C@@H]21` (stereo not given in full), for which the GI50 is 26.4 µM (inactive) in the test on HOP-92; 28.3 µM (inactive) with SK-MEL-5; > 100 µM (inactive) in the test with SF-295; 56.1 µM (inactive) with PC-3; > 100 µM (inactive) in the test with NCI-H460; 22.5 µM (inactive) with UO-31. The GI50 with NCI/ADR-RES was 45.6 µM (inactive); with MDA-MB-231, 61.4 µM (inactive); in the test on RXF 393, 12.1 µM (inactive); in the test on SK-OV-3, > 100 µM (inactive); in the test with T47D it was 29.5 µM (inactive); in the test with UACC-62, 39.5 µM (inactive). The GI50 in the test on HL-60 was 8.67 µM (inactive); in the test with MDA-MB-435 it was 31.8 µM (inactive); in the test with OVCAR-5 it was > 100 µM (inactive); with HCC 2998 it was 44.6 µM (inactive); in the test on COLO 205, 18.2 µM (inactive); with SF-268 it was > 100 µM (inactive). The results for the GI50 in the test with LOX IMVI and in the test with A549 were 23.9 µM (inactive) and > 100 µM (inactive), respectively.
Take `CCOC(=O)c1c[nH]c2cc3c(cc2c1=O)CCS3`: the GI50 in the test with HOP-92 was > 100 µM (inactive); with SK-MEL-5, > 100 µM (inactive); with SF-295 it was > 100 µM (inactive); in the test with PC-3, > 100 µM (inactive); in the test with NCI-H460, > 100 µM (inactive); with UO-31, 83.9 µM (inactive). The GI50 in the test on NCI/ADR-RES is > 100 µM (inactive); in the test on MDA-MB-231, > 100 µM (inactive); with RXF 393, 57.8 µM (inactive); in the test on SK-OV-3, > 100 µM (inactive); in the test on T47D, > 100 µM (inactive); in the test on UACC-62, > 100 µM (inactive). Besides, the GI50 in the test on HL-60 was 91 µM (inactive); in the test on MDA-MB-435, > 100 µM (inactive); in the test with OVCAR-5, > 100 µM (inactive); with HCC 2998, > 100 µM (inactive); in the test with COLO 205 it was > 100 µM (inactive); with SF-268, > 100 µM (inactive). In addition, the GI50 in the test on LOX IMVI and with A549 was > 100 µM (inactive) throughout.
`N=c1oc2c(Cl)cc(Cl)cc2cc1C(=O)Nc1cccc2ccccc12`: the GI50 in the test on HOP-92 was 15.3 µM (inactive); with SK-MEL-5, 37.9 µM (inactive); with SF-295 it was 18.7 µM (inactive); in the test with PC-3, 24.2 µM (inactive); in the test on NCI-H460, 5.01 µM (inactive); in the test on UO-31, 10.2 µM (inactive). Also, the GI50 is 4.93 µM (inactive) in the test on NCI/ADR-RES; 3.78 µM (inactive) in the test with MDA-MB-231; 16.7 µM (inactive) in the test with RXF 393; 15.9 µM (inactive) with SK-OV-3; 5.2 µM (inactive) with T47D; 40.6 µM (inactive) in the test with UACC-62. For the same compound, the GI50 with HL-60 is 18.8 µM (inactive); in the test with MDA-MB-435 it was 27 µM (inactive); with OVCAR-5, 21.7 µM (inactive); in the test with HCC 2998, 6.93 µM (inactive); in the test with COLO 205 it was 7.57 µM (inactive); in the test with SF-268 it was 18 µM (inactive). Besides, the GI50 with LOX IMVI is 4.7 µM (inactive); in the test with A549, 6.55 µM (inactive).
Regarding `C#CCCCC(=O)N(C(=O)C[S+]([O-])CC)c1ccccc1` (stereo not given), the GI50 with HOP-92, in the test with SK-MEL-5, with SF-295, with PC-3, with NCI-H460 and with UO-31 was > 100 µM (inactive) in each case. The GI50 in the test on NCI/ADR-RES, in the test on MDA-MB-231, in the test with RXF 393, in the test with SK-OV-3, in the test with T47D and with UACC-62 was > 100 µM (inactive) each time. The GI50 with HL-60, with MDA-MB-435, in the test on OVCAR-5, with HCC 2998, with COLO 205 and in the test on SF-268 was > 100 µM (inactive) each time. The GI50 in the test on LOX IMVI and in the test on A549 was > 100 µM (inactive) in each case.
For `COC(=O)NC(Cc1ccccc1)NC(C)=O` (stereo not given), the GI50 in the test on HOP-92, in the test with SK-MEL-5, in the test with SF-295, in the test with PC-3, in the test on NCI-H460 and with UO-31 was > 100 µM (inactive) in each case. In addition, the GI50 with NCI/ADR-RES is > 100 µM (inactive); in the test with MDA-MB-231, 71 µM (inactive); in the test on RXF 393 it was > 100 µM (inactive); in the test on SK-OV-3 it was > 100 µM (inactive); with T47D it was > 100 µM (inactive); in the test on UACC-62, > 100 µM (inactive). Besides, the GI50 in the test on HL-60, in the test on MDA-MB-435, in the test with OVCAR-5, in the test with HCC 2998, with COLO 205 and in the test with SF-268 was > 100 µM (inactive) throughout. In addition, the GI50 in the test with LOX IMVI and with A549 was > 100 µM (inactive) each time.
With `S=C=NCc1ccccc1` [BENZYL ISOTHIOCYANATE], the GI50 with HOP-92 is 5.77 µM (inactive); in the test on SK-MEL-5, 2.81 µM (inactive); in the test with SF-295, 4.82 µM (inactive); with PC-3, 4.1 µM (inactive); in the test on NCI-H460, 6.27 µM (inactive); in the test on UO-31, 2.72 µM (inactive). Further, the GI50 was 3.43 µM (inactive) with NCI/ADR-RES; 1.8 µM (inactive) in the test with MDA-MB-231; 1.62 µM (inactive) in the test on RXF 393; 11 µM (inactive) in the test with SK-OV-3; 10.4 µM (inactive) with T47D; 3.32 µM (inactive) with UACC-62. Further, the GI50 is 1.86 µM (inactive) in the test with HL-60; 2.16 µM (inactive) with MDA-MB-435; 10.9 µM (inactive) in the test with OVCAR-5; 8.28 µM (inactive) with HCC 2998; 1.51 µM (inactive) in the test on COLO 205; 3.35 µM (inactive) in the test with SF-268. In addition, the GI50 is 0.796 µM (active) in the test on LOX IMVI and 4.49 µM (inactive) in the test with A549.
